Measured values: patent publication US20070237885A1, “PROCESS FOR THE ISOLATION OF LIMONOID GLUCOSIDES FROM CITRUS” (THE TEXAS A & M UNIVERSITY SYSTEM, priority 2006, published 2007)

How the values were obtained:
[1] = test system: DMBA-induced buccal pouch tumours; settings: hamsters; cited from earlier work
[2] = test system: benzo[a]pyrene-induced forestomach neoplasia; settings: mice; cited from earlier work
[3] = test system: 7,12-dimethylbenz[a]anthracene (DMBA)-induced buccal pouch epidermoid carcinomas; settings: cited from earlier work; for incidence of DMBA-induced buccal pouch epidermoid carcinomas: female Syrian hamsters
[4] = test system: MDA-MB-435 oestrogen receptor-negative human breast cancer cells; settings: MDA-MB-435 cells; [3H] thymidine incorporation; cited from earlier work
[5] = Anti-oxidant properties
Description: This offers potential advantages over the use of synthetic methods which require more complicated procedures to prepare pure limonoid compounds.

[6] = test system: cancer cells; test: Inhibition of cancer cells in cell culture models; assay type: cell-based
Description: (§1) Limon glucoside is a triterpene derivative, in which aglycone part is linked to a glucose moiety, and it is water-soluble. Citrus plants containing the above-named limonoid glucoside derivatives belong to the Rutaceae family, and include, for example, Citrus paradisi and Citrus aurantium. The fresh fruits of Citrus paradisi (Rio Red grapefruit) and Citrus aurantium (sour orange) are currently produced in large amounts as acidulants for preparing juice and pickles in various parts of the World, and thus are readily available sources for extraction of limonoid glucosides. A method or process for isolating limonoid glucosides in gram quantities was devised.

[7] = Water solubility; assay type: physicochemical
Description: as §1

[8] = test system: azoxymethane (AOM)-induced aberrant crypt foci (ACF); settings: dietary intake; initiation and post-initiation feeding experiments; male F344 rats; cited from earlier work

Compound | decrease of average tumour burden [1] | IC50, inhibition of proliferation [4] [µg/mL] | anti-oxidant properties [5] | inhibition of cancer cells [6] | other results
nomilin 17-β-D-glucopyranoside [NG] | only LG was effective | – | – | – | –
CC(=O)O[C@H]1CC(=O)OC(C)(C)[C@@H]2CC(=O)[C@]3(C)[C@H](CC[C@@]4(C)[C@H](c5ccoc5)OC(=O)[C@H]5O[C@]543)[C@@]12C [nomilin] | – | 0.4 | – | – | inhibition of benzo[a]pyrene-induced forestomach neoplasia [2]: inhibited; incidence of DMBA-induced buccal pouch epidermoid carcinomas [3]: reduced the incidence
isoobacunoic-17-β-D-glucopyranoside [Compound (1)] | – | – | exhibit anti-oxidant properties | exhibited inhibition | –
CC1(C)O[C@H]2CC(=O)OC[C@]23[C@H]2CC[C@@](C)([C@@H](O[C@@H]4O[C@H](CO)[C@@H](O)[C@H](O)[C@H]4O)c4ccoc4)[C@@]4(O[C@@H]4C(=O)O)[C@]2(C)C(=O)C[C@@H]13 [Compound (2), limonin-17-β-D-glucopyanoside] | effective | 75 | exhibit anti-oxidant properties | exhibited inhibition | water solubility [7]: water-soluble
CC1(C)O[C@H]2CC(=O)OC[C@]23[C@H]2CC[C@@]4(C)[C@H](c5ccoc5)OC(=O)[C@H]5O[C@]54[C@]2(C)C(=O)C[C@@H]13 [limonin] | – | 12.5 | – | – | incidence of DMBA-induced buccal pouch epidermoid carcinomas [3]: reduced the incidence; comparative inhibition of DMBA-induced neoplasia ([3]; limonin compared with nomilin): more effective inhibitor; formation of aberrant crypt foci (ACF) [8]: significantly inhibited
CC1(C)OC(=O)C=C[C@]2(C)[C@H]3CC[C@@]4(C)[C@H](c5ccoc5)OC(=O)[C@H]5O[C@]54[C@]3(C)C(=O)C[C@@H]12 [obacunone] | – | – | – | – | formation of aberrant crypt foci (ACF) [8]: significantly inhibited
deacetyl nomilinic acid glucoside [Compound (3)] | – | – | exhibit anti-oxidant properties | exhibited inhibition | –
nomilinic acid 17-β-D-glucopyranoside [NAG] | only LG was effective | – | – | – | –
